According to ChEMBL document CHEMBL4665646, “Mass Spectrometry-based Label-free Quantitative Proteomics To Study the Effect of 3PO Drug at Cellular Level” (2019):
Calls of active or inactive are those of the source. The calls are words filed in the database; no cut-off is given here.

Columns and labels:
EA.hy 926 [1] = test: Antiinflammatory activity in TNFalpha-induced human EA.hy 926 cells assessed as decrease in IL1B expression at 20 uM pretreated with compound for 1 hr followed by TNFalpha challenge and further incubated for 24 hrs by SYBR-green based qRT-PCR analysis; format: functional, cell-based; conditions: time 25.0 hrs
EA.hy 926 [2] = test: Antiinflammatory activity in TNFalpha-induced human EA.hy 926 cells assessed as decrease in […] expression at 20 uM pretreated with compound for 1 hr followed by TNFalpha challenge and further incubated for 24 hrs by SYBR-green based qRT-PCR analysis; format: functional, cell-based; conditions: time 25.0 hrs
EA.hy 926 [3] = test: (§1) Antiinflammatory activity in TNFalpha-induced human EA.hy 926 cells assessed as decrease in ICAM-1 expression by measuring log2 fold change at 20 uM pretreated with compound for 1 hr followed by TNFalpha challenge and further incubated for 24 hrs by SYBR-green based qRT-PCR analysis; format: functional; conditions: time 25 hrs
EA.hy 926 [4] = test: as §1, with “SOD-2” for “ICAM-1”, “analysis (reference value: 2.69)” for “analysis”; format: functional; conditions: time 25 hrs
EA.hy 926 [5] = test: Cytotoxicity against human EA.hy 926 cells assessed as inhibition of cell proliferation at 20 uM after 24 hrs by MTT assay; format: functional, cell-based
EA.hy 926 [6] = test: as §1, with “HLA-A” for “ICAM-1”, “analysis (reference value: 1.56)” for “analysis”; format: functional; conditions: time 25 hrs
EA.hy 926 [7] = test: Antiinflammatory activity in TNFalpha-induced human EA.hy 926 cells assessed as decrease in IL8 expression at 20 uM pretreated with compound for 1 hr followed by TNFalpha challenge and further incubated for 24 hrs by SYBR-green based qRT-PCR analysis; format: functional, cell-based; conditions: time 25.0 hrs

## O=C(/C=C/c1cccnc1)c1ccncc1
EA.hy 926 [1]
  Activity: Active
EA.hy 926 [2]
  Activity: Active
EA.hy 926 [3]
  log2FC: -0.47
EA.hy 926 [4]
  log2FC: -0.53
EA.hy 926 [5]
  inhibition: Active
EA.hy 926 [6]
  log2FC: -0.75
EA.hy 926 [7]
  Activity: Active
